Test results taken from patent publication US12269800B2, “Delivery of therapeutic alkaloid compounds” (priority 2021, dated 2025).
Where two headings read alike, the source gives them in different places.

Key:
[1] = Plasma Stability Assay of Example A3, human plasma; conditions: % of prodrug compound remaining, 37° C.
[2] = Plasma Stability Assay of Example A3, mouse plasma; conditions: % of prodrug compound remaining, 37° C.
[3] = 5 µM
[4] = 5 µM; remark: listed apart in the source
Procedure: 50 uL aliquots of positive controls and test compounds spiked into rat or human plasma (n=2) were added to a pre-warmed plate (37° C.) and shaken at 50 rpm. At each respective time point, the reaction was stopped by adding 500 μL of acetonitrile containing internal standards (100 nM aprozolam, 200 nM caffeine, 100 nM tolbutamide). All samples were vortexed for 10 minutes, followed by centrifugation at 3,220 g for 30 minutes to precipitate proteins. 100 μL of the supernatant is transferred to a new plate. The supernatant will be diluted with ultrapure water according to the LC-MS signal response and peak shape.

SMILES | Human Plasma Prodrug (%) ([1]; 0.0 min) | Mouse Plasma Prodrug (%) ([2]; 0.0 min) | Mouse Plasma Prodrug (%) ([2]; 15 min) | Mouse Plasma Prodrug (%) ([2]; 30 min) | Mouse Plasma Prodrug (%) ([2]; 60 min) | Mouse Plasma Prodrug (%) ([2]; 120 min) | Mouse Plasma Prodrug (%) ([2]; 240 min) | Human Plasma Prodrug (%) ([1]; 120 min) | Human Plasma Prodrug (%) ([1]; 240 min) | Human Plasma Prodrug (%) ([1]; 30 min) | Human Plasma Prodrug (%) ([1]; 60 min) | Rat Plasma Prodrug (%) ([3]; 0 min) | Rat Plasma Prodrug (%) ([3]; 10 min) | Rat Plasma Prodrug (%) ([3]; 30 min) | Rat Plasma Prodrug (%) ([3]; 60 min) | Rat Plasma Prodrug (%) ([3]; 120 min) | Rat Plasma Prodrug (%) ([3]; 240 min) | Human Plasma Prodrug (%) ([4]; 0 min) | Human Plasma Prodrug (%) ([4]; 10 min) | Human Plasma Prodrug (%) ([4]; 30 min) | also measured
COc1ccc([C@@]23CCC(OC(=O)c4ccc(F)cc4)=C[C@@H]2N(C)CC3)cc1OC [Compound 353, (3aS,7aS)-3a-(3,4-dimethoxyphenyl)-1-methyl-2,3,3a,4,5,7a-hexahydro-1H-indol-6-yl 4-fluorobenzoate] | 100 | 100 | 0 | 0 | 0 | 0 | 0 |  |  |  |  |  |  |  |  |  |  |  |  |  | 
COc1ccc([C@@]23CCC(OC(=O)C(C)(C)C)=C[C@@H]2N(C)CC3)cc1OC [Compound 309, [(3aS,7aS)-3a-(3,4-dimethoxyphenyl)-1-methyl-3,4,5,7a-tetrahydro-2H-indol-6-yl] 2,2-dimethylpropanoate] | 100.0 | 100.0 |  |  | 8.2 | 0.0 | 0.0 | 3.6 | 2.0 |  |  |  |  |  |  |  |  |  |  |  | 
COc1ccc([C@@]23CCC(OC(=O)c4cccc(C(C)(C)C)c4)=C[C@@H]2N(C)CC3)cc1OC [Compound 375, (3aS,7aS)-3a-(3,4-dimethoxyphenyl)-1-methyl-2,3,3a,4,5,7a-hexahydro-1H-indol-6-yl 3-(tert-butyl)benzoate] | 100 | 100 | 11 | 2 | 0 | 0 | 0 | 57 | 26 | >99 | 97 |  |  |  |  |  |  |  |  |  | Human Plasma Prodrug (%) ([1]; 15 min): >99%
COc1ccc([C@@]23CCC(OC(=O)C4CC4)=C[C@@H]2N(C)CC3)cc1OC [Compound 312, [(3aS,7aS)-3a-(3,4-dimethoxyphenyl)-1-methyl-3,4,5,7a-tetrahydro-2H-indol-6-yl] cyclopropanecarboxylate] | 100.0 | 100.0 | 3.5 | 1.6 | 2.2 | 2.8 | 0.8 |  |  | 6.2 |  |  |  |  |  |  |  |  |  |  | Human Plasma Prodrug (%) ([1]; 15 min): 8.1%
COc1ccc([C@@]23CCC(OC(=O)C(c4ccccc4)c4ccccc4)=C[C@@H]2N(C)CC3)cc1OC [Compound 306, [(3aS,7aS)-3a-(3,4-dimethoxyphenyl)-1-methyl-3,4,5,7a-tetrahydro-2H-indol-6-yl] 2,2-diphenylacetate] | 100.0 | 100.0 | 6.2 |  | 1.6 | 0.4 | 0.1 |  |  |  |  |  |  |  |  |  |  |  |  |  | 
COc1ccc([C@@]23CCC(OC(=O)c4ccc(N(C)C)cc4)=C[C@@H]2N(C)CC3)cc1OC [Compound 355, [(3aS,7aS)-3a-(3,4-dimethoxyphenyl)-1-methyl-3,4,5,7a-tetrahydro-2H-indol-6-yl] 4-(dimethylamino)benzoate] | 100.0 | 100.0 |  |  | 9.9 | 0.5 | 0.0 | >99 |  | >99 | >99 |  |  |  |  |  |  |  |  |  | Human Plasma Prodrug (%) ([1]; 15 min): >99%
COc1ccc([C@@]23CCC(OC(=O)c4ccc(C#N)cc4)=C[C@@H]2N(C)CC3)cc1OC [Compound 354, (3aS,7aS)-3a-(3,4-dimethoxyphenyl)-1-methyl-2,3,3a,4,5,7a-hexahydro-1H-indol-6-yl 4-cyanobenzoate] | 100 | 100 | 5 | 7 | 5 | 4 | 0 | 13 | 1 | 72 | 42 |  |  |  |  |  |  |  |  |  | Human Plasma Prodrug (%) ([1]; 15 min): 93%
C/C=C(\C)C(=O)OC1=C[C@@H]2N(C)CC[C@]2(c2ccc(OC)c(OC)c2)CC1 [Compound 313, [(3aS,7aS)-3a-(3,4-dimethoxyphenyl)-1-methyl-3,4,5,7a-tetrahydro-2H-indol-6-yl](E)-2-methylbut-2-enoate] | 100.0 | 100.0 | 2.1 | 0.7 | 0.1 | 0.0 | 0.0 | 2.4 | 0.4 |  |  |  |  |  |  |  |  |  |  |  | 
CCC(C)C(=O)OC1=C[C@@H]2N(C)CC[C@]2(c2ccc(OC)c(OC)c2)CC1 (stereo partly drawn) [Compound 425, (3aS,7aS)-3a-(3,4-dimethoxyphenyl)-1-methyl-2,3,3a,4,5,7a-hexahydro-1H-indol-6-yl 2-methylbutanoate] |  |  |  |  |  |  |  |  |  |  |  | 100.0 | 4.4 | 0.1 | 0.0 | 0.0 | 0.0 | 100.0 | 6.5 | 4.8 | Human Plasma Prodrug (%) ([4]; 60 min): 4.0%; Human Plasma Prodrug (%) ([4]; 120 min): 3.0%; Human Plasma Prodrug (%) ([4]; 240 min): 1.9%
COc1ccc([C@@]23CCC(OC(=O)c4cccc(N(C)C)c4)=C[C@@H]2N(C)CC3)cc1OC [Compound 307, [(3aS,7aS)-3a-(3,4-dimethoxyphenyl)-1-methyl-3,4,5,7a-tetrahydro-2H-indol-6-yl] 3-(dimethylamino)benzoate] | 100.0 | 100.0 |  | 3.8 | 0.1 | 0.0 | 0.0 |  |  |  | 83.0 |  |  |  |  |  |  |  |  |  | 
CCC(CC)C(=O)OC1=C[C@@H]2N(C)CC[C@]2(c2ccc(OC)c(OC)c2)CC1 [Compound 426, (3aS,7aS)-3a-(3,4-dimethoxyphenyl)-1-methyl-2,3,3a,4,5,7a-hexahydro-1H-indol-6-yl 2-ethylbutanoate] |  |  |  |  |  |  |  |  |  |  |  | 100.0 | 70.2 | 33.2 | 9.5 | 0.9 | 0.1 | 100.0 | 87.1 | 80.3 | Human Plasma Prodrug (%) ([4]; 60 min): 79.2%; Human Plasma Prodrug (%) ([4]; 120 min): 73.6%; Human Plasma Prodrug (%) ([4]; 240 min): 66.4%
COc1ccc([C@@]23CCC(OC(=O)CCN)=C[C@@H]2N(C)CC3)cc1OC [Compound 397, (3aS,7aS)-3a-(3,4-dimethoxyphenyl)-1-methyl-2,3,3a,4,5,7a-hexahydro-1H-indol-6-yl 3-aminopropanoate] |  |  |  |  |  |  |  |  |  |  |  | 100.0 | 10.5 | 0.5 | 0.1 | 0.1 | 0.1 | 100.0 | 2.2 | 0.5 | Human Plasma Prodrug (%) ([4]; 60 min): 0.1%; Human Plasma Prodrug (%) ([4]; 120 min): 0.2%; Human Plasma Prodrug (%) ([4]; 240 min): 0.0%
CCCC(C)C(=O)OC1=C[C@@H]2N(C)CC[C@]2(c2ccc(OC)c(OC)c2)CC1 (stereo partly drawn) [Compound 402, (3aS,7aS)-3a-(3,4-dimethoxyphenyl)-1-methyl-2,3,3a,4,5,7a-hexahydro-1H-indol-6-yl 2-methylpentanoate] |  |  |  |  |  |  |  |  |  |  |  | 100.0 | 3.5 | 0.1 | 0.0 | 0.0 | 0.0 | 100.0 | 11.3 | 2.9 | Human Plasma Prodrug (%) ([4]; 60 min): 2.1%; Human Plasma Prodrug (%) ([4]; 120 min): 1.6%; Human Plasma Prodrug (%) ([4]; 240 min): 1.1%
CCCCC(CC)C(=O)OC1=C[C@@H]2N(C)CC[C@]2(c2ccc(OC)c(OC)c2)CC1 (stereo partly drawn) [Compound 401, (3aS,7aS)-3a-(3,4-dimethoxyphenyl)-1-methyl-2,3,3a,4,5,7a-hexahydro-1H-indol-6-yl 2-ethylhexanoate] |  |  |  |  |  |  |  |  |  |  |  | 100.0 | 84.5 | 55.8 | 33.8 | 16.3 | 3.3 | 100.0 | 95.9 | >99 | Human Plasma Prodrug (%) ([4]; 60 min): 96.6%; Human Plasma Prodrug (%) ([4]; 120 min): 94.4%; Human Plasma Prodrug (%) ([4]; 240 min): 93.4%
C=C(C)C(=O)OC1=C[C@@H]2N(C)CC[C@]2(c2ccc(OC)c(OC)c2)CC1 [Compound 315, [(3aS,7aS)-3a-(3,4-dimethoxyphenyl)-1-methyl-3,4,5,7a-tetrahydro-2H-indol-6-yl]-2-methylprop-2-enoate] | 100.0 | 100.0 | 5.3 | 2.4 | 1.3 | 2.0 | 1.9 | 0.2 | 0.0 | 2.3 | 0.5 |  |  |  |  |  |  |  |  |  | 
